Source: patent US6046186A, “Estrone sulfamate inhibitors of estrone sulfatase, and associated pharmaceutical compositions and methods of use” (SRI International, priority 1997, dated 2000)
Like-named read-outs stand apart in the source and are kept apart here.

Legend:
uterus = assay: Uterotrophic assay (estrogenic activity from uterine weights); type: in vivo, Sprague Dawley rats; design: scale not given here; conditions: female rats, test compound alone once daily for 7 days, s.c. or oral gavage; uterine weight vs vehicle control
Text: B. Uterotrophic and antiuterotrophic assays
Sprague Dawley rates are obtained from Simmonsen Laboratories, Gilroy, Calif. Estradiol benzoate may be purchased from Sigma Chemical Co., St. Louis, Mo.
The procedure of Wakeling et al., Endocrinology 99:447453 (1983) is followed. Female Sprague Dawley rats weighing 40-50 grams are used for the experiment. In general, animals are quarantined for 3 days after arrival at the experimental site.
Rats are initially weighed and randomly divided into groups with 5 animals in each group. For the uterotrophic assay, animals are dosed once daily with various doses of test compounds in 0.1 or 1.0 ml of sterile saline via subcutaneous injection or oral gavage, respectively. For the antiuterotrophic assay, animals are dosed once daily with the same doses indicated above plus 0.5 μg/rat of estradiol benzoate alone.
The animals are treated for 7 days. On day 8, animals are weighed and then sacrificed. The uterus of each animal is removed immediately after death and weighed; fat materials are trimmed off prior to weighing.
A comparison of uterine weights from the groups receiving test compound alone with those of the vehicle control group gives the estrogenic activity. Antiestrogenic activity is obtained by comparing the uterine weights from the groups receiving test compound plus estradiol with those of the estradiol control group.

Estrone Sulfatase = molecular target: T1, Estrone Sulfatase (Homo sapiens, UniProt P08842); assay: Effects of Inhibitors on Estrone Sulfatase Activity in MCF-7 Cells; type: cell-based
T1 construct: endogenous in cells; host or cells: MCF-7 human breast cancer cells (American Type Culture Collection)
T1 sequence (P08842 22-583): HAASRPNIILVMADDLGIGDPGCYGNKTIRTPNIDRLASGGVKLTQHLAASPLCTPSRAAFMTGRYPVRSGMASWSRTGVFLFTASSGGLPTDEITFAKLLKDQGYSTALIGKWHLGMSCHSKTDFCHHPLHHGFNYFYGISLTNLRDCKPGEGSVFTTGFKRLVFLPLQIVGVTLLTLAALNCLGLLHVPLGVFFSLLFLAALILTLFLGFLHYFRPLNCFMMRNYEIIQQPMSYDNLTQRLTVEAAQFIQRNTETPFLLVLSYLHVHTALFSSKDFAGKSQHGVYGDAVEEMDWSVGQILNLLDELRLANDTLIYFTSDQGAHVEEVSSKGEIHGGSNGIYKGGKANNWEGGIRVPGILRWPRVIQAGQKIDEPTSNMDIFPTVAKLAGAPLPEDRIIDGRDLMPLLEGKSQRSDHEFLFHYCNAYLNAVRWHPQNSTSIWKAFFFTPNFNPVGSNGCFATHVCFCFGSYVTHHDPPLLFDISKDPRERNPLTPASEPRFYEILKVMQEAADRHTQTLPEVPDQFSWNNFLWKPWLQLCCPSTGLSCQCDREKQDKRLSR
Text: A. Effects of Inhibitors on Estrone Sulfatase Activity in MCF-7 Cells
Reagents: MCF-7 human breast cancer cell line was supplied by the American Type Culture Collection, Rockville, MD. Eagle's minimum essential medium (MEM) and fetal calf serum (FCS) were purchased from Sigma Chemical Company, St. Louis, Mo. [4-^14 C]Estrone, [6,7-^3 H]estradiol and [6,7-^3 H](N)estrone sulfate were obtained from New England Nuclear Research Products, Boston, Mass.
Procedure: The method of Duncan et al., Cancer Res. 53:298-303 (1993) was employed. MCF-7 cells were seeded in 60 mm×15 mm culture dishes at 1×10^5 cells/dish and maintained in 4.0 ml of MEM containing 2 mM glutamine and 5% FCS. The cells were incubated at 37° C. in an atmosphere of 5% CO2 /95% air and 100% humidity, with the medium changed every third day. When the cells reached 80% confluency, the intact monolayers were washed once with Earl's balanced salt solution and incubated in 4.0 ml of serum and phenol re-free MEM containing either the substrate (^3 H-estrone sulfate, 7 pmol, 9×10^5 dpm) and inhibitor dissolved in ethanol, or ethanol alone. The fmal ethanol concentration was always below 1%. The incubation continued under the regular conditions for 24 h. At the end of 24 h, 2.0 ml of medium was transferred into separate tubes containing 7×10^3 dpm of ^14 C-estrone. The mixture was vortexed vigorously for 60 s with 5 ml of toluene. After phase separation, 2.0 ml of the organic phase was transferred into a counting vial for scintillation counting. The amount of estrone sulfate hydrolyzed was calculated on the basis of ^3 H counts obtained, with the added ^14 C-estrone counts used to correct for recovery through the extraction procedure.
The cells remaining in each culture dish were washed once with saline and then scraped with 1.0 ml of 0.5 N NaOH into 10×75 mm tubes. The cell pellets in each tube was incubated at 50° C. for 20 min to ensure that digestion was complete and all proteins had became soluble. An aliquot was then taken for protein determination by Lowry's method (Lowry et al., J. Biol. Chem. 193:265-275 (1951)).
The percentage of inhibition was determined by evaluating the quantity of estrone sulfate hydrolyzed with the inhibitor relative to that without the inhibitor.
As a general practice, all available inhibitors were first tested at 100 μM; the ones showing inhibitory effects at that concentration were tested again at various concentrations to obtain the IC50 values.

[1] = intact MCF-7 human breast cancer cells, 3H-estrone sulfate substrate, 24 h, 37° C., read-out: Estrone Sulfatase Inhibitory Activity IC50

Structure (SMILES)	Estrogenic Activity (uterus)	IC50 (Estrone Sulfatase; [1]) [nM]	IC50 (Estrone Sulfatase) [nM]
C[C@]12CC[C@@H]3c4ccc(OS(N)(=O)=O)c([N+](=O)[O-])c4CC[C@H]3[C@@H]1CCC2=O [Compound 77, 4-Nitroestra-1,3,5(10)-trien-17-one-3-O-sulfamate]	0	< 10	
C[C@]12CC[C@@H]3c4cc([N+](=O)[O-])c(OS(N)(=O)=O)cc4CC[C@H]3[C@@H]1CCC2=O [Compound 78, 2-Nitroestra-1,3,5(10)-trien-17-one-3-O-sulfamate]	0		7
CN(C)c1cc2c(cc1OS(N)(=O)=O)CC[C@@H]1[C@@H]2CC[C@]2(C)C(=O)CC[C@@H]12 [Compound 83, 2-Dimethylaminoestra-1,3,5(10)-trien-17-one-3-O-sulfamate]	0	270	
CN(C)c1c(OS(N)(=O)=O)ccc2c1CC[C@@H]1[C@@H]2CC[C@]2(C)C(=O)CC[C@@H]12 [Compound 88, 4-Dimethylaminoestra-1,3,5(10)-trien-17-one-3-O-sulfamate]	0	515	
CC(=O)Nc1cc2c(cc1OS(N)(=O)=O)CC[C@@H]1[C@@H]2CC[C@]2(C)C(=O)CC[C@@H]12 [Compound 93, 2-Acetoamideestra-1,3,5(10)-trien-17-one-3-O-sulfamate]	0.02	410	
CC(=O)Nc1c(OS(N)(=O)=O)ccc2c1CC[C@@H]1[C@@H]2CC[C@]2(C)C(=O)CC[C@@H]12 [Compound 96, 4-Acetoamideestra-1,3,5(10)-trien-17-one-3-O-sulfamate]	0	290	
CC12CC(=O)C3=Cc4ccc(OS(N)(=O)=O)cc4CCC3C1CCC2=O (stereo not drawn) [Compound 99, β-Homo-9-(10-19)-abeoestra-1,3,5(10),9(19)-tetraen-11,17-dione-3-O-sulfamate]	0	26	
